Calls of active or inactive are those of the source. The rule behind the calls is not given here.
Key:
[1] = Cmax in Sprague-Dawley rat at 5 mg/kg, po measured upto 24 hrs by LC-MS/MS analysis; type: ADME, organism-based; design: dose 5 mg/kg, time < 24 hrs, route po; conditions: in vivo
[2] = Volume of distribution at steady state in Sprague-Dawley rat at 5 mg/kg, iv measured upto 24 hrs by LC-MS/MS analysis; type: ADME, organism-based; conditions: in vivo, read-out: Vdss
DOHH-2 [3] = experiment: Induction of cell cycle arrest in human DOHH-2 cells assessed as accumulation of cells at S phase at 0.5 uM incubated for 24 hrs by PI staining based FACScan flow cytometry analysis (reference value: 55.11 %); type: functional
[4] = biological target: Phosphatidylinositol 4,5-bisphosphate 3-kinase catalytic subunit alpha isoform (Homo sapiens, UniProt P42336); experiment: Inhibition of N-terminal His6-tagged recombinant full length human PI3Kalpha expressed in baculovirus infected Sf21 insect cells incubated for 30 mins by HTRF assay
Phosphatidylinositol 4,5-bisphosphate 3-kinase catalytic subunit alpha isoform, sequence (P42336 whole entry, canonical isoform): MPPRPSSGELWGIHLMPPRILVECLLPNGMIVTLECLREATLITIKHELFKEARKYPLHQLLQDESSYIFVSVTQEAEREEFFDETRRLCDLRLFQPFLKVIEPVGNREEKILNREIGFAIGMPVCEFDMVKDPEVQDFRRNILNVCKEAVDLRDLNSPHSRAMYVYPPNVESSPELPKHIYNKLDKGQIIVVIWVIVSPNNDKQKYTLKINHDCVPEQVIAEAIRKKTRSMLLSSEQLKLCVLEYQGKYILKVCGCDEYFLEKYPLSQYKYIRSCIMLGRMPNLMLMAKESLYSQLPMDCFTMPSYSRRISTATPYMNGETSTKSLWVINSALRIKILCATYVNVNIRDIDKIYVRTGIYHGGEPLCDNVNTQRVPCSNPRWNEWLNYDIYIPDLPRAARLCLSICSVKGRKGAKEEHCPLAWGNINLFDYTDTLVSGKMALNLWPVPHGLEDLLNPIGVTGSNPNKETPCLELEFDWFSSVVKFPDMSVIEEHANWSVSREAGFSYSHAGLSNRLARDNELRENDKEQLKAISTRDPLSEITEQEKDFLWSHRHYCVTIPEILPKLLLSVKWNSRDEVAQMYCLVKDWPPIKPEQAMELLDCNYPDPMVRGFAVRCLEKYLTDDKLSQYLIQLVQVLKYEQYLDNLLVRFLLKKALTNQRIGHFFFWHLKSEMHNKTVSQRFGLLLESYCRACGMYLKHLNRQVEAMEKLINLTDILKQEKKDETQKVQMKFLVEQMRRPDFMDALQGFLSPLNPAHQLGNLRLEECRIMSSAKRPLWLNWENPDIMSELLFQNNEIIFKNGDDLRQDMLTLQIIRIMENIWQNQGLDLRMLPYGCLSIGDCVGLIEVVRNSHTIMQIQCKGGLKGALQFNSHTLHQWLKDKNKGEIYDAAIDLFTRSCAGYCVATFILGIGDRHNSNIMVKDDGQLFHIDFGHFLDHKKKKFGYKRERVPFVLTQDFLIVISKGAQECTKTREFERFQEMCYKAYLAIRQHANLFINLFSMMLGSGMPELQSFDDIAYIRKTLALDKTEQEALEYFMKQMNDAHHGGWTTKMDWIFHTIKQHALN

[5] = Tmax in Sprague-Dawley rat at 5 mg/kg, iv measured upto 24 hrs by LC-MS/MS analysis; type: ADME, organism-based; conditions: in vivo
SU-DHL-6 [6] = experiment: Induction of cell cycle arrest in human SU-DHL-6 cells assessed as accumulation of cells at G0/G1 phase at 0.5 uM incubated for 24 hrs in presence of ibrutinib by PI staining based FACScan flow cytometry analysis (reference value: 55.61 %); type: functional
[7] = AUC(0 to t) in Sprague-Dawley rat at 2 mg/kg, iv measured upto 24 hrs by LC-MS/MS analysis; type: ADME, organism-based; design: time < 24 hrs, dose 2 mg/kg, route iv; conditions: in vivo
SU-DHL-6 [8] = experiment: Induction of apoptosis in human SU-DHL-6 cells assessed as early apoptotic cells at 1.5 uM incubated for 48 hrs by annexin V-FITC and PI staining based flow cytometry analysis (reference value: 8.81 %); type: functional
[9] = Selectivity ratio of IC50 for human SKOV-3 cells over expressing PI3Kalpha to IC50 for human SUDHL-6 cells; type: functional
DOHH-2 [10] = experiment: Induction of cell cycle arrest in human DOHH-2 cells assessed as accumulation of cells at G2/M phase at 0.5 uM incubated for 24 hrs by PI staining based flow cytometry analysis (reference value: 21.42 %); type: functional
[11] = Half life in Sprague-Dawley rat at 10 mg/kg, po measured upto 24 hrs by LC-MS/MS analysis; type: ADME, organism-based; conditions: in vivo
[12] = Clearance in Sprague-Dawley rat at 5 mg/kg, po measured upto 24 hrs by LC-MS/MS analysis; type: ADME, organism-based; conditions: in vivo
[13] = Cmax in Sprague-Dawley rat at 5 mg/kg, iv measured upto 24 hrs by LC-MS/MS analysis; type: ADME, organism-based; design: time < 24 hrs, dose 5 mg/kg, route iv; conditions: in vivo
[14] = AUC(0 to t) in Sprague-Dawley rat at 5 mg/kg, po measured upto 24 hrs by LC-MS/MS analysis; type: ADME, organism-based; design: dose 5 mg/kg, time < 24 hrs, route po; conditions: in vivo
[15] = Tmax in Sprague-Dawley rat at 10 mg/kg, po measured upto 24 hrs by LC-MS/MS analysis; type: ADME, organism-based; conditions: in vivo
[16] = Half life in Sprague-Dawley rat at 2 mg/kg, iv measured upto 24 hrs by LC-MS/MS analysis; type: ADME, organism-based; conditions: in vivo
[17] = Tmax in Sprague-Dawley rat at 5 mg/kg, po measured upto 24 hrs by LC-MS/MS analysis; type: ADME, organism-based; conditions: in vivo
DOHH-2 [18] = experiment: Induction of apoptosis in human DOHH-2 cells assessed as early apoptotic cells at 2 uM incubated for 48 hrs by annexin V-FITC and PI staining based flow cytometry analysis (reference value: 2.09 %); type: functional
[19] = Clearance in Sprague-Dawley rat at 5 mg/kg, iv measured upto 24 hrs by LC-MS/MS analysis; type: ADME, organism-based; conditions: in vivo
[20] = AUC(0 to t) in Sprague-Dawley rat at 10 mg/kg, po measured upto 24 hrs by LC-MS/MS analysis; type: ADME, organism-based; design: dose 10 mg/kg, time < 24 hrs, route po; conditions: in vivo
DOHH-2 [21] = experiment: Induction of cell cycle arrest in human DOHH-2 cells assessed as accumulation of cells at G2/M phase at 0.5 uM incubated for 24 hrs in presence of ibrutinib by PI staining based flow cytometry analysis (reference value: 21.42 %); type: functional
[22] = Oral bioavailability in Sprague-Dawley rat at 5 mg/kg measured upto 24 hrs by LC-MS/MS analysis; type: ADME, organism-based; conditions: in vivo
DOHH-2 [23] = experiment: Induction of cell cycle arrest in human DOHH-2 cells assessed as accumulation of cells at S phase at 0.5 uM incubated for 24 hrs in presence of ibrutinib by PI staining based flow cytometry analysis (reference value: 55.11 %); type: functional
[24] = Half life in Sprague-Dawley rat at 5 mg/kg, iv measured upto 24 hrs by LC-MS/MS analysis; type: ADME, organism-based; conditions: in vivo
SU-DHL-6 [25] = experiment: Induction of cell cycle arrest in human SU-DHL-6 cells assessed as accumulation of cells at S phase at 0.5 uM incubated for 24 hrs by PI staining based FACScan flow cytometry analysis (reference value: 24.18 %); type: functional
SU-DHL-6 [26] = experiment: Induction of apoptosis in human SU-DHL-6 cells assessed as late apoptotic cells at 1.5 uM incubated for 48 hrs by annexin V-FITC and PI staining based flow cytometry analysis (reference value: 3.88 %); type: functional
[27] = Volume of distribution at steady state in Sprague-Dawley rat at 2 mg/kg, iv measured upto 24 hrs by LC-MS/MS analysis; type: ADME, organism-based; conditions: in vivo, read-out: Vdss
DOHH-2 [28] = experiment: Induction of cell cycle arrest in human DOHH-2 cells assessed as accumulation of cells at G0/G1 phase at 0.5 uM incubated for 24 hrs in presence of ibrutinib by PI staining based flow cytometry analysis (reference value: 23.47 %); type: functional
SU-DHL-6 [29] = experiment: Antitumor activity against human SU-DHL-6 cells xenografted in NOD/SCID mouse assessed as reduction in tumor volume at 10 mg/kg, po measured every 2 days in presence of ibrutinib; type: functional, organism-based; conditions: time 2.0 day
DOHH-2 [30] = experiment: Induction of cell cycle arrest in human DOHH-2 cells assessed as accumulation of cells at G0/G1 phase at 0.5 uM incubated for 24 hrs by PI staining based flow cytometry analysis (reference value: 23.47 %); type: functional
SU-DHL-6 [31] = experiment: Induction of apoptosis in human SU-DHL-6 cells assessed as viable cells at 1.5 uM incubated for 48 hrs by annexin V-FITC and PI staining based flow cytometry analysis (reference value: 87.0 %); type: functional; conditions: read-out: Activity
[32] = biological target: Phosphatidylinositol 4,5-bisphosphate 3-kinase catalytic subunit gamma isoform (Homo sapiens, UniProt P48736); experiment: Inhibition of N-terminal His6-tagged recombinant full length human PI3Kgamma expressed in baculovirus infected Sf21 insect cells incubated for 30 mins by HTRF assay
Phosphatidylinositol 4,5-bisphosphate 3-kinase catalytic subunit gamma isoform, sequence (P48736 whole entry, canonical isoform): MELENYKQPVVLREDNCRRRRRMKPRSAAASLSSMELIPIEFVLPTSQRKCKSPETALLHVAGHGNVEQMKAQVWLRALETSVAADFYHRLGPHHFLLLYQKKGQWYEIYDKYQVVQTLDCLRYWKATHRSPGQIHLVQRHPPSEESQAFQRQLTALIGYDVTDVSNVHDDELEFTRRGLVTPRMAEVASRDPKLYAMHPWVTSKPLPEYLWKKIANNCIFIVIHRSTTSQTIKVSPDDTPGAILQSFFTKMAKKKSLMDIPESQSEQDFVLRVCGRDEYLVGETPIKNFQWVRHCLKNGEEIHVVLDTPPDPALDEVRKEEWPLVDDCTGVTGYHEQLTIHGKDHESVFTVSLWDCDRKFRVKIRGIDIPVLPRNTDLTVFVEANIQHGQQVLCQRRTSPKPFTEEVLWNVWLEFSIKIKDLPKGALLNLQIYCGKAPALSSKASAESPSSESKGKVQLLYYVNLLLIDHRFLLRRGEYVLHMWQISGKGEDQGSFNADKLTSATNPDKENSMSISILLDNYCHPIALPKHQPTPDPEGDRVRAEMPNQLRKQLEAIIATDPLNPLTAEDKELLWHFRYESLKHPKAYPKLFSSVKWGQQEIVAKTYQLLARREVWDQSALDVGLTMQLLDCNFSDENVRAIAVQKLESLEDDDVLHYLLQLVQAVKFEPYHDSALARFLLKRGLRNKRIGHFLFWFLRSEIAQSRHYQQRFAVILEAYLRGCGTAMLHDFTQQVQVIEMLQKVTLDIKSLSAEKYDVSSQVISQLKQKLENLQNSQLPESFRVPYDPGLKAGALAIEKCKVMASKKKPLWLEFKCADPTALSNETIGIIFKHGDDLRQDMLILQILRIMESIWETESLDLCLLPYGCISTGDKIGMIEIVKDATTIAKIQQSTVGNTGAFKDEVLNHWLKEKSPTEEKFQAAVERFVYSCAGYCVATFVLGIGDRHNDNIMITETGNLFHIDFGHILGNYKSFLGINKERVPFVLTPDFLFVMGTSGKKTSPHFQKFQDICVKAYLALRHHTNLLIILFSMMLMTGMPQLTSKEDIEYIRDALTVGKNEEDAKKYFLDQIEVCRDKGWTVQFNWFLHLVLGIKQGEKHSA

DOHH-2 [33] = experiment: Induction of apoptosis in human DOHH-2 cells assessed as late apoptotic cells at 2 uM incubated for 48 hrs in presence of ibrutinib by annexin V-FITC and PI staining based flow cytometry analysis (reference value: 2.20 %); type: functional
SU-DHL-6 [34] = experiment: Induction of cell cycle arrest in human SU-DHL-6 cells assessed as accumulation of cells at S phase at 0.5 uM incubated for 24 hrs in presence of ibrutinib by PI staining based flow cytometry analysis (reference value: 24.18 %); type: functional
[35] = Half life in Sprague-Dawley rat at 5 mg/kg, po measured upto 24 hrs by LC-MS/MS analysis; type: ADME, organism-based; conditions: in vivo
DOHH-2 [36] = experiment: Induction of apoptosis in human DOHH-2 cells assessed as viable cells at 2 uM incubated for 48 hrs by annexin V-FITC and PI staining based flow cytometry analysis (reference value: 95.4 %); type: functional; conditions: read-out: Activity

SMILES: C[C@H]1CC[C@@H](c2nc3cccc(Cl)c3c(=O)n2-c2cccnc2)N1c1nc(N)nc(N)c1C#N
- Cmax [1]: 3640 ng/mL
- Vd [2]: 2.86 L/kg
- Activity (DOHH-2 [3]): 43.53%
- IC50 [4]: 794 µM
- Tmax [5]: 4.8 min
- Activity (SU-DHL-6 [6]): 79.73%
- AUC(0-t) at 24 h [7]: 1150 ng·h/mL
- Activity (SU-DHL-6 [8]): 17.7%
- Selectivity ratio [9]: 107
- Activity (DOHH-2 [10]): 12.82%
- half-life [11]: 144 min
- CL/F [12]: 13.2 mL/min/kg
- Cmax [13]: 860 ng/mL
- AUC(0-t) at 24 h [14]: 8610 ng·h/mL
- Tmax [15]: 49.8 min
- half-life [16]: 43.8 min
- Tmax [17]: 3.33 h
- Activity (DOHH-2 [18]): 20.4%
- clearance [19]: 12.5 mL/min/kg
- AUC(0-t) at 24 h [20]: 2930 ng·h/mL
- Activity (DOHH-2 [21]): 20.03%
- bioavailability [22]: 126%
- Activity (DOHH-2 [23]): 32.92%
- half-life [24]: 167 min
- Activity (SU-DHL-6 [25]): 26.15%
- Activity (SU-DHL-6 [26]): 7.43%
- Vd [27]: 1.66 L/kg
- Activity (DOHH-2 [28]): 53.16%
- Activity (SU-DHL-6 [29]): Active
- Activity (DOHH-2 [30]): 36.44%
- viability at 1.5 µM (SU-DHL-6 [31]): 74.7%
- IC50 [32]: 16 µM
- Activity (DOHH-2 [33]): 25.8%
- Activity (SU-DHL-6 [34]): 15.65%
- half-life [35]: 568 min
- viability at 2 µM (DOHH-2 [36]): 60.6%
